Results on 1 compound are retold here after patent US8609661B2, “Pyrimido-pyrrolo-quinoxalinedione inhibitors of cystic fibrosis transmembrane conductance regulator protein and uses therefor” (The Regents of the University of California, priority 2009, dated 2013).

By inhibition is commonly meant the change of the read-out against control, counted positive when it falls. As usually defined, the IC50 is the midpoint of a concentration-inhibition curve.

Common to all, as to assay type: cell-based
Assay [1] addresses T1, human wildtype CFTR (Homo sapiens, UniProt P13569).
T1 construct: expressed in transfected cells; host or cells: Fischer rat thyroid (FRT) cells
The assay is described as follows: Fluorescence platereader assay of CFTR-mediated iodide influx (YFP quenching) in FRT cells. A digest of the protocol:
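Fischer rat thyroid cells co-expressing human wildtype CFTR and the YFP-H148Q/1152L halide sensor were seeded at 20,000 cells per well in 96-well black-walled plates and assayed 48 h later at confluence. After PBS washes and a 15 min incubation, CFTR was maximally activated with an agonist mixture. Fluorescence was recorded for 2 s before and 10 s after adding 160 μL iodide-substituted PBS, and iodide influx rates came from non-linear regression.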

The test system of assay [2] is calcium-activated chloride channels. Description: UTP-induced chloride currents in cystic fibrosis (CFTR-deficient) human bronchial epithelial cells. Particulars: 10 or 20 μM; UTP 100 μM. The protocol: FIG. 3A: Apical membrane current measured in CFTR-expressing FRT cells in the presence of a transepithelial chloride gradient and with amphotericin B permeabilization of the basolateral membrane. CFTR was activated by CPT-cAMP (chlorophenylthio-cAMP) (100 μM), with increasing concentrations of PPQ-102 added as shown. Left: Original recording. Right: Dose-response (S.E. n=4). FIG. 3B: Measurements as in FIG. 3A, but with apigenin (100 μM) or IBMX (100 μM) as agonists. The data are representative of 3 sets of experiments. FIG. 3C: Short-circuit current measured in T84 (left) and human bronchial airway epithelial cells (right). CFTR was maximally activated by 10 μM forskolin and 100 μM IBMX (‘forsk’). Current in the absence of inhibitor is indicated as ‘control.’ FIG. 3D: Calcium-activated chloride channels were activated by UTP (100 μM) in cystic fibrosis (CFTR-deficient) human bronchial epithelial cells, with PPQ-102 added as indicated. ENaC (epithelial sodium channel) was inhibited by amiloride (10 μM). FIG. 3E: Cellular cAMP assayed in CHO—K1 cells under basal conditions and after addition of 20 μM forskolin (S.E. n=4, differences with PPQ-102, not significant).

The target of assay [3] is T1, human wildtype CFTR. Description: Single-channel cell-attached patch recordings of CFTR. Particulars: 1 μM. How it is done: D. Patch-Clamp Analysis—Whole cell recordings were performed using FRT cells stably expressing human wildtype CFTR. The pipette solution contained 140 mM N-methyl D-glucamine chloride (NMDG-Cl), 5 mM EGTA, 1 mM MgCl2, 1 mM Tris-ATP, and 10 mM HEPES (pH 7.2), and the bath solution contained 140 mM N-methyl D-glucamine chloride, 1 mM CaCl2, 1 mM MgCl2, 10 mM glucose and 10 mM HEPES (pH 7.4). Experiments were performed at room temperature (22-25° C.). Pipettes were pulled from borosilicate glass and had resistances of 3-5 Mohm after fire polishing. […] After establishing the whole-cell configuration, CFTR was activated by adding forskolin and 3-isobutyl-1-methylxanthine (IBMX). Whole cell currents were elicited by applying hyperpolarizing and depolarizing voltage pulses from a holding potential of 0 mV to potentials between −100 mV and +100 mV in steps of 20 mV. Current was filtered at 5 kHz and digitized and analyzed using an AxoScope 10.0 system and a Digidata® 1440A AC/DC converter (Molecular Devices, Sunnyvale, Calif.). The single channel characteristics of CFTR were analyzed in the cell-attached configuration using fire-polished pipettes with a resistance of 10-15 Mohm. The pipette solution contained (in mM): 140 NMDG-Cl, 1 CaCl2, 1 MgCl2, 5 glucose and 10 HEPES (pH 7.4), and the bath solution contained 140 KCl, 1 CaCl2, 1 MgCl2, 5 glucose and 10 HEPES (pH 7.4). Recordings were performed at room temperature using an Axopatch-200B (Axon Instruments, Foster City, Calif.). The voltage and current data were low-pass filtered at 1 kHz and stored for later analysis. Single channel data were digitally filtered at 25 Hz, and analyzed using Clampfit 10.0 software (Axon Instruments).
Cell-attached patch recordings were performed to examine single-channel CFTR function.

The target of the next assay is CFTR (Homo sapiens, UniProt P13569). Description: Short-circuit current in non-permeabilized T84 and human bronchial epithelial cells. Set-up: endogenous in cells; host or cells: T84 human intestinal epithelial cells; primary human bronchial epithelial cells. Particulars: forskolin and IBMX, read-out: IC50 for CFTR inhibition.
CFTR, sequence (P13569 whole entry): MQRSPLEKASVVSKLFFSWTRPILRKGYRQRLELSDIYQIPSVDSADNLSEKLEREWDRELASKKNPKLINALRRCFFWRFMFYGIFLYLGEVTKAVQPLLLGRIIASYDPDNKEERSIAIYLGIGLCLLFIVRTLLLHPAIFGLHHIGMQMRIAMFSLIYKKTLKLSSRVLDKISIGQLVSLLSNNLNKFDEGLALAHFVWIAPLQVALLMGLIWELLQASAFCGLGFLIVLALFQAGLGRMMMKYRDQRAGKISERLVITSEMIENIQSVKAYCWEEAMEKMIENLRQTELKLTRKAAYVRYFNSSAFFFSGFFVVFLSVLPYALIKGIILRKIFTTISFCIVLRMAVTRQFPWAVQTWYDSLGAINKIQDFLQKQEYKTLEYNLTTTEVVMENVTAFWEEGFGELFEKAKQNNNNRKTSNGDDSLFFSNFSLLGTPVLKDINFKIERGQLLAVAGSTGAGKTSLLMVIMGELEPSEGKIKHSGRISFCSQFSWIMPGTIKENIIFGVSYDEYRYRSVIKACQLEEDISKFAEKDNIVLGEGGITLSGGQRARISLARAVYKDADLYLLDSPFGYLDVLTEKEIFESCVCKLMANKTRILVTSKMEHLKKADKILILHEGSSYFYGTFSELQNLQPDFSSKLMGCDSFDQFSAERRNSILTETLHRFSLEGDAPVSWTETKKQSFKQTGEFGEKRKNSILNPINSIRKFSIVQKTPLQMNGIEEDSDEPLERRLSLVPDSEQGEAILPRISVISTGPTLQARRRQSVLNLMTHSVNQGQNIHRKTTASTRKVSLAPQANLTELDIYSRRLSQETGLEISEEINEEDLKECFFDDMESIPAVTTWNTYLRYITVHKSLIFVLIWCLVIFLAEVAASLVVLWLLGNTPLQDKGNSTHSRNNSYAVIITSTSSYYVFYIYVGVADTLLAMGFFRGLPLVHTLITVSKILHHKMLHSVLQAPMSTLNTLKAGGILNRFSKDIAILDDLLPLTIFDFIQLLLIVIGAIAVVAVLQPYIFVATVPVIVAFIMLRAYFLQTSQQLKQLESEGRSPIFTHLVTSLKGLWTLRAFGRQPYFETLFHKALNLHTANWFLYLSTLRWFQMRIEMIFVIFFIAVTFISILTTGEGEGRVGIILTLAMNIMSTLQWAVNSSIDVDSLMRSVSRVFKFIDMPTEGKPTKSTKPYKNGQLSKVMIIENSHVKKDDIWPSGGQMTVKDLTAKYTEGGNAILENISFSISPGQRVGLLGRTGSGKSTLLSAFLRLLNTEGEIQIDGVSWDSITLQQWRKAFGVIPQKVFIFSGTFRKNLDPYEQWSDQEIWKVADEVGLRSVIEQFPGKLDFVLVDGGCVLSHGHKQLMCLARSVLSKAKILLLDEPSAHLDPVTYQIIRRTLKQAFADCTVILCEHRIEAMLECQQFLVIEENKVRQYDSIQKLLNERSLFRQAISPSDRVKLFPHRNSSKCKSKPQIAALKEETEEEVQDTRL

T1 sequence (P13569 whole entry): as above

Regarding `Cc1ccc(C2Nc3ccccc3-n3c(-c4ccccc4)c4c(=O)n(C)c(=O)n(C)c4c32)o1` (racemic) [PPQ-102, 7,9-Dimethyl-11-phenyl-6-(5-methylfuran-2-yl)-5,6-dihydro-pyrimido[4′,5′-3,4]pyrrolo[1,2-a]quinoxaline-8,10-(7H,9H)-dione], the inhibition at 5 µM at human wildtype CFTR [1] (FRT, Table 2, screening, 5 μM, read-out: % Inhibition at 5 μM) stood at 85%. The inhibition at 25 µM on human wildtype CFTR [1] (FRT, Table 2, screening, 25 μM, read-out: % Inhibition at 25 μM) was found to be 97%. Moreover, the IC50 at human wildtype CFTR [1] (apparent IC50 from concentration-inhibition data, fluorescence platereader assay) is 800 nM. The “inhibition of UTP-induced chloride currents” value in assay [2] is reported as “little inhibition”. For the same compound, at human wildtype CFTR [3], the “Mean channel open time” value is recorded as “did not significantly change” and the “mean channel closed time” value is “greatly increased”. The “Channel open probability (Po)” value on human wildtype CFTR [3] (control 0.50±0.04, forskolin and IBMX, +80 mV) turned out to be 0.14±0.03. Moreover, the unitary conductance result at human wildtype CFTR [3] (control 7 pS at +80 mV) is reported as “did not change”. In addition, the IC50 at CFTR was less than 1000 nM.
